Reference: article PMC9295786, “Discovery of potent BET bromodomain 1 stereoselective inhibitors using DNA-encoded chemical library selections” (Proceedings of the National Academy of Sciences of the …, 2022)
pEC50, pIC50, pKd: −log10 of the molar value. Read-outs that look alike come from different tables or passages of the source.

Columns and labels:
[1] = Metabolic stability assay in liver microsomes (MLM); format: in vitro ADME; conditions: mouse liver microsomes 0.5 mg protein/mL, compound 2.0 μM, NADPH 1.0 mM; read-out: MLM t1/2 (half-life)
[2] = Metabolic stability assay in liver microsomes (HLM); format: in vitro ADME; conditions: human liver microsomes 0.5 mg protein/mL, compound 2.0 μM, NADPH 1.0 mM; read-out: HLM t1/2 (half-life)
BRDT-BD1 [3] = target: T1, BRDT-BD1 (Homo sapiens, UniProt Q58F21); test: AlphaScreen competition assay with biotinylated JQ1; format: binding; design: the first bromodomain of BRDT (BRDT-BD1); made in house; host or cells: bacteria (pET15b or pET28b vector)
BRDT-BD2 = target: T2, BRDT-BD2 (Homo sapiens, UniProt Q58F21); test: as above; format: binding
T2 construct: two similar tandem bromodomains (BD1 and BD2); made in house; host or cells: bacteria (pET15b or pET28b vector)

MOLM-13 cells [4] = test: Cell viability by CellTiterGlo; format: cell-based; conditions: 72 h of treatment, CellTiterGlo, normalized to DMSO, read-out: Viability IC50 MOLM-13
Kasumi1 cells = test: Cell viability by CellTiterGlo; format: cell-based; conditions: 72 h of treatment, CellTiterGlo, normalized to DMSO, read-out: Viability IC50 Kasumi1
MV4;11 cells [5] = test: Cell viability by CellTiterGlo; format: cell-based; conditions: for pIC50: 72 h of treatment, CellTiterGlo, normalized to DMSO, read-out: Viability IC50 MV4;11
BRD4-BD2 = target: T3, BRD4-BD2 (Homo sapiens, UniProt O60885); test: AlphaScreen competition assay with biotinylated JQ1; format: binding; conditions: read-out: BRD4-BD2 IC50
T3 construct: two similar tandem bromodomains (BD1 and BD2); made in house; host or cells: bacteria (pET15b or pET28b vector)

THP1 cells = test: Cell viability by CellTiterGlo; format: cell-based; conditions: 72 h of treatment, CellTiterGlo, normalized to DMSO, read-out: Viability IC50 THP1
BRD4-BD1 [6] = target: T4, BRD4-BD1 (Homo sapiens, UniProt O60885); test: AlphaScreen competition assay with biotinylated JQ1; format: binding; design: the bromodomain 1 (BD1) of BRD4; made in house; host or cells: bacteria (pET15b or pET28b vector); conditions: for BRD4-BD1 vs. BRD4-BD2 fold (BRD4-BD1 selectivity): ratio of AlphaScreen IC50 values, NE = not efficient; for pIC50: read-out: BRD4-BD1 IC50
BRD3-BD1 = target: T5, BRD3-BD1 (Homo sapiens, UniProt Q15059); test: BromoKdELECT assay; format: binding
T5 construct: two similar tandem bromodomains (BD1 and BD2); purchased Eurofins DiscoverX (Fremont, CA); host or cells: E. coli host derived from the BL21 strain, T7 phage
T5 sequence (Q15059 34-140 limits assumed): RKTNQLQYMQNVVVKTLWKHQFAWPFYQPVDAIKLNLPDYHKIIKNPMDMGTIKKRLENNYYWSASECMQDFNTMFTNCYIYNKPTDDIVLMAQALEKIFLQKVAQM

BRDT-BD1 [7] = target: T1, BRDT-BD1; test: BromoKdELECT assay; format: binding; design: the first bromodomain of BRDT (BRDT-BD1); purchased Eurofins DiscoverX (Fremont, CA); host or cells: E. coli host derived from the BL21 strain, T7 phage
MV4;11 cells [8] = test: Apoptosis detection (Annexin V) by flow cytometry; format: cell-based; conditions: 72 h of treatment
MOLM-13 cells [9] = test: Cell cycle analysis by flow cytometry; format: cell-based; conditions: 24 h of treatment at the IC50
MOLM-13 cells [10] = test: Apoptosis detection (Annexin V) by flow cytometry; format: cell-based; conditions: 72 h of treatment
BRD4-BD1 [11] = target: T4, BRD4-BD1; test: BromoKdELECT assay; format: binding; design: the bromodomain 1 (BD1) of BRD4; purchased Eurofins DiscoverX (Fremont, CA); host or cells: E. coli host derived from the BL21 strain, T7 phage
BRD2-BD1 [12] = target: T6, BRD2-BD1 (Homo sapiens, UniProt P25440); test: BromoKdELECT assay; format: binding
T6 construct: two similar tandem bromodomains (BD1 and BD2); purchased Eurofins DiscoverX (Fremont, CA); host or cells: E. coli host derived from the BL21 strain, T7 phage
T6 sequence (P25440 74-180 limits assumed): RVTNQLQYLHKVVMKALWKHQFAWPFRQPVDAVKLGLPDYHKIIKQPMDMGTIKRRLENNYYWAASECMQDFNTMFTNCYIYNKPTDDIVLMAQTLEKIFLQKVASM

BRD3-BD2 = target: T7, BRD3-BD2 (Homo sapiens, UniProt Q15059); test: BromoKdELECT assay; format: binding
T7 construct: two similar tandem bromodomains (BD1 and BD2); purchased Eurofins DiscoverX (Fremont, CA); host or cells: E. coli host derived from the BL21 strain, T7 phage
T7 sequence (Q15059 306-415 limits assumed): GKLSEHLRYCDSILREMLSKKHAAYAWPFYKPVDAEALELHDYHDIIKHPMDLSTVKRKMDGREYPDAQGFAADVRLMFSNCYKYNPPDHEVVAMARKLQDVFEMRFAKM

BRD2-BD2 = target: T8, BRD2-BD2 (Homo sapiens, UniProt P25440); test: BromoKdELECT assay; format: binding
T8 construct: two similar tandem bromodomains (BD1 and BD2); purchased Eurofins DiscoverX (Fremont, CA); host or cells: E. coli host derived from the BL21 strain, T7 phage
T8 sequence (P25440 344-453 limits assumed): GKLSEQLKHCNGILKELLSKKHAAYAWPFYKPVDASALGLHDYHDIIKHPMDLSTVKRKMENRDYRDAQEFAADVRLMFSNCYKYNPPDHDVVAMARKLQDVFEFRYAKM

MV4;11 cells [13] = test: Cell cycle analysis by flow cytometry; format: cell-based; conditions: 24 h of treatment at the IC50
[14] = test system: MYC expression in MOLM-13 cells; test: MYC expression by RT-qPCR; format: cell-based; conditions: 8 h of treatment
[15] = test system: MYC expression in MV4;11 cells; test: MYC expression by RT-qPCR; format: cell-based; conditions: 8 h of treatment
TAF1-BD2 = conditions: BROMOscan profile; cited from earlier work
TAF1L-BD2 = conditions: BROMOscan profile; cited from earlier work
BRD4-BD1 [16] = target: T4, BRD4-BD1; design: the bromodomain 1 (BD1) of BRD4; purchased Eurofins DiscoverX (Fremont, CA); host or cells: E. coli host derived from the BL21 strain, T7 phage; conditions: read-out: IC50 BRD4-BD1 AlphaScreen; cited from earlier work
BRD2-BD1 [17] = target: T6, BRD2-BD1; conditions: cited from earlier work
BRD4-BD1 [18] = target: T4, BRD4-BD1; design: the bromodomain 1 (BD1) of BRD4; purchased Eurofins DiscoverX (Fremont, CA); host or cells: E. coli host derived from the BL21 strain, T7 phage; conditions: BROMOscan assays; cited from earlier work
BD2 = test system: BD2; design: method as in PMID 24391744; conditions: cited from earlier work

Cc1nnc2n1-c1ccc(Cl)cc1C(c1ccccc1)=NC2 [Alprazolam, reference compound]
half-life at 2 μM [1]: 302 min
half-life at 2 μM [2]: 864 min

CNC(=O)[C@H](CC1CCN(C(=O)Cc2ccc3[nH]c(=O)cc(C)c3c2)CC1)NC(=O)c1ccc(-c2ccc(C)cc2C)cn1 [CDD-786]
pIC50 (BRDT-BD1 [3]): 7.02
BRDT-BD1 vs. BRDT-BD2 fold (BRDT-BD1 selectivity) (BRDT-BD1 [3]; ratio of AlphaScreen IC50 values, NE = not efficient): 65 fold
pIC50 (BRDT-BD2; read-out: BRDT-BD2 IC50): 5.20
pIC50 (MOLM-13 cells [4]; Homo sapiens, MOLM-13): 6.14
pIC50 (Kasumi1 cells; Homo sapiens, Kasumi 1): 6.58
pIC50 (MV4;11 cells [5]; Homo sapiens, MV4-11): 6.07
pIC50 (BRD4-BD2): 5.21
pIC50 (THP1 cells; Homo sapiens, THP-1): 5.92
BRD4-BD1 vs. BRD4-BD2 fold (BRD4-BD1 selectivity) (BRD4-BD1 [6]): 275 fold
pIC50 (BRD4-BD1 [6]): 7.65

CNC(=O)[C@@H](CC1CCN(C(=O)Cc2ccc3[nH]c(=O)cc(C)c3c2)CC1)NC(=O)c1ccc(-c2ccc(C)cc2C)cn1 [CDD-787]
pKd (BRD3-BD1; BromoKdELECT): 9.89
pIC50 (BRD3-BD1; BromoKdELECT, read-out: IC50 against BRD3-BD1): 9.89
BRD3-BD1 selectivity (BRD3-BD1; over BRD3-BD2, BromoKdELECT Kd ratio): 5,920 fold
pKd (BRDT-BD1 [7]): 9.66
pIC50 (BRDT-BD1 [7]; read-out: IC50 against BRDT-BD1): 9.66
half-life at 2 μM [1]: 13 min
half-life at 2 μM [2]: 33 min
pIC50 (BRDT-BD1 [3]): 8.68
fold more potent than the S-enantiomer (CDD-786) in inhibiting BRDT-BD1 (BRDT-BD1 [3]): 50 fold
fold more potent than (+)-JQ1 for BRDT-BD1 (BRDT-BD1 [3]; AlphaScreen): 22 fold
fold more selective than (+)-JQ1 for BRDT-BD1 (BRDT-BD1 [3]; AlphaScreen): ~2,200 fold
pIC50 (BRDT-BD2; read-out: BRDT-BD2 IC50): 4.98
Induction of apoptosis (Annexin V+ cells), MV4;11 (MV4;11 cells [8]): apoptosis
pIC50 (MOLM-13 cells [4]; Homo sapiens, MOLM-13): 7.80
pIC50 (Kasumi1 cells; Homo sapiens, Kasumi 1): 8.08
Effect on the cell cycle, MOLM-13 (MOLM-13 cells [9]): G1 arrest
Induction of apoptosis (Annexin V+ cells), MOLM-13 (MOLM-13 cells [10]): apoptosis
pKd (BRD4-BD1 [11]): 9.54
pIC50 (BRD4-BD1 [11]; read-out: IC50 against BRD4-BD1): 9.54
pKd (BRD2-BD1 [12]; BromoKdELECT): 9.59
pIC50 (BRD2-BD1 [12]; BromoKdELECT, read-out: IC50 against BRD2-BDT1): 9.59
BRD2-BD1 selectivity (BRD2-BD1 [12]; over BRD2-BD2, BromoKdELECT Kd ratio): 420 fold
pKd (BRD3-BD2): 6.11
pKd (BRD2-BD2): 6.96
pIC50 (MV4;11 cells [5]; Homo sapiens, MV4-11): 8.08
pEC50 (MV4;11 cells [5]; Homo sapiens, MV4-11, Table S6, NE = not efficient, read-out: MV4-11 EC50 (viability)): 8.10
pIC50 (BRD4-BD2): 4.89
Effect on the cell cycle, MV4;11 (MV4;11 cells [13]): G1 arrest
MYC expression, MOLM-13 [14]: suppressed
MYC expression, MV4;11 [15]: suppressed
pIC50 (THP1 cells; Homo sapiens, THP-1): 7.93
BRD4-BD1 vs. BRD4-BD2 fold (BRD4-BD1 selectivity) (BRD4-BD1 [6]): 3909 fold
pIC50 (BRD4-BD1 [6]): 8.48

CNC(=O)[C@@H](CC1CCN(C(=O)Cc2ccc3[nH]c(=O)cc(C)c3c2)CC1)NC(=O)c1ccc(-c2ccccc2)cn1 [CDD-956]
half-life at 2 μM [1]: 35 min
Induction of apoptosis (Annexin V+ cells), MV4;11 (MV4;11 cells [8]): apoptosis
Induction of apoptosis (Annexin V+ cells), MOLM-13 (MOLM-13 cells [10]): apoptosis
Effect on the cell cycle, MV4;11 (MV4;11 cells [13]): G1 arrest
MYC expression, MOLM-13 [14]: suppressed
MYC expression, MV4;11 [15]: suppressed

Cc1cc2c(-c3ccco3)cnc(N[C@@H]3CCN(C)C[C@H]3C(=O)NC3CCCCC3)c2[nH]c1=O [GSK789]
pKd (TAF1-BD2): 7.30
pKd (TAF1L-BD2): 6.40

Cc1sc2c(c1C)C(c1ccc(Cl)cc1)=N[C@@H](CC(=O)OC(C)(C)C)c1nnc(C)n1-2 [JQ1, reference compound]
pIC50 (MOLM-13 cells [4]): 6.89
pIC50 (Kasumi1 cells): 7.53
pIC50 (MV4;11 cells [5]): 7.21
pIC50 (THP1 cells): 6.88

COc1ccccc1S(=O)(=O)Nc1ccc2c3c(cc(-n4cnc(C)c4)nc13)C(=O)N2C [LT052]
pIC50 (BRD4-BD1 [16]): 7.06
pIC50 (BRD2-BD1 [17]): 5.05
selectivity for BRD4-BD1 over BRD4-BD2 (BRD4-BD1 [18]): 138 fold

COc1cc(OC)c2c(=O)[nH]c(-c3cc(C)c(OCCO)c(C)c3)nc2c1 [RVX-208]
selectivity over BD1 domains (BD2; BD2 over BD1): ~10 fold
BD2 potency (BD2): > 100 nM
pIC50 (BRDT-BD2; AlphaScreen, read-out: IC50 in our BRDT-BD2 AlphaScreen assay): 5.70
